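Assay format: 96-well plates, 48-hour exposure. The concentration for full growth arrest is given as TGI.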
Experiments:
Assay in all cases: DTP human tumour cell line panel, 48 h
COLO 205 colon = system: COLO 205 colon
HCC-2998 colon = system: HCC-2998 colon
HCT-15 colon = system: HCT-15 colon
IGROV1 ovarian = system: IGROV1 ovarian
MALME-3M melanoma = system: MALME-3M melanoma
NCI-H522 lung = system: NCI-H522 lung
OVCAR-5 ovarian = system: OVCAR-5 ovarian
RXF 393 renal = system: RXF 393 renal
SF-295 CNS = system: SF-295 CNS
SK-MEL-5 melanoma = system: SK-MEL-5 melanoma
SR leukemia = system: SR leukemia
TK-10 renal = system: TK-10 renal
U251 CNS = system: U251 CNS
UACC-257 melanoma = system: UACC-257 melanoma
UO-31 renal = system: UO-31 renal
OVCAR-4 ovarian = system: OVCAR-4 ovarian

Structure (SMILES)	TGI (COLO 205 colon)	TGI (HCC-2998 colon)	TGI (HCT-15 colon)	TGI (IGROV1 ovarian)	TGI (MALME-3M melanoma)	TGI (NCI-H522 lung)	TGI (OVCAR-5 ovarian)	TGI (RXF 393 renal)	TGI (SF-295 CNS)	TGI (SK-MEL-5 melanoma)	TGI (SR leukemia)	TGI (TK-10 renal)	TGI (U251 CNS)	TGI (UACC-257 melanoma)	TGI (UO-31 renal)	TGI (OVCAR-4 ovarian)
O=c1cc(CBr)c2ccc(O)cc2o1	> 100 µM	> 100 µM	> 100 µM	> 100 µM	> 100 µM	> 100 µM	> 100 µM	> 100 µM	> 100 µM	> 100 µM	> 100 µM	> 100 µM	> 100 µM	> 100 µM	> 100 µM	–
O=c1c2cc([N+](=O)[O-])ccc2n2n1Cc1ccccc1C2	> 100 µM	> 100 µM	> 100 µM	> 100 µM	> 100 µM	> 100 µM	–	> 100 µM	> 100 µM	> 100 µM	> 100 µM	> 100 µM	> 100 µM	> 100 µM	> 100 µM	> 100 µM
C[C@H]1C[C@H](C)c2ccccc2N(C)C1=Nc1ccccc1	49.7 µM	> 100 µM	> 100 µM	78 µM	71.4 µM	–	78 µM	92.2 µM	> 100 µM	31.3 µM	58.3 µM	55.6 µM	–	48.2 µM	> 100 µM	> 100 µM
COc1cc(NCc2ccc3nc(OC)c(OC)nc3c2)cc(OC)c1OC	> 100 µM	> 100 µM	> 100 µM	> 100 µM	> 100 µM	> 100 µM	> 100 µM	> 100 µM	> 100 µM	> 100 µM	> 100 µM	–	> 100 µM	> 100 µM	> 100 µM	> 100 µM
COC(=O)c1ccccc1/C=C1\Cc2cc(C)cc(C)c2C1=O	–	> 100 µM	> 100 µM	> 100 µM	> 100 µM	> 100 µM	> 100 µM	> 100 µM	> 100 µM	> 100 µM	> 100 µM	> 100 µM	> 100 µM	> 100 µM	–	–
COC(=O)C1[C@@H](C(=O)OC)C12C=Cc1ccccc1C=C2 (stereo not given in full)	> 100 µM	> 100 µM	> 100 µM	> 100 µM	> 100 µM	> 100 µM	> 100 µM	> 100 µM	> 100 µM	> 100 µM	> 100 µM	> 100 µM	> 100 µM	> 100 µM	> 100 µM	–
CCOC(=O)[C@@H]1ON2O[C@H](OC3CCCC3(c3ccccc3)c3ccccc3)C[C@H]3OC(=O)[C@@H]1C32 (stereo not given in full)	> 100 µM	> 100 µM	> 100 µM	> 100 µM	–	> 100 µM	> 100 µM	36.5 µM	> 100 µM	> 100 µM	99.2 µM	> 100 µM	> 100 µM	> 100 µM	> 100 µM	–
Cc1ccc(S(=O)(=O)NC2C(=O)c3ccccc3C(=O)C2n2cnc3ccccc32)cc1 (stereo not given)	> 100 µM	34.7 µM	> 100 µM	75 µM	1.81 µM	–	> 100 µM	61.8 µM	> 100 µM	42.6 µM	> 100 µM	49.6 µM	> 100 µM	> 100 µM	–	26.1 µM
c1ccc(Nc2nnc(Cn3ccc4ccccc43)s2)cc1	> 100 µM	> 100 µM	> 100 µM	> 100 µM	–	> 100 µM	> 100 µM	> 100 µM	80.9 µM	> 100 µM	> 100 µM	> 100 µM	> 100 µM	> 100 µM	> 100 µM	> 100 µM
Fc1ccccc1-c1nn2c(C34CC5CC(CC(C5)C3)C4)nnc2s1	> 100 µM	> 100 µM	> 100 µM	> 100 µM	> 100 µM	> 100 µM	> 100 µM	> 100 µM	> 100 µM	> 100 µM	> 100 µM	–	> 100 µM	> 100 µM	> 100 µM	> 100 µM
CCCCCC(CO)C(O)(C(F)(F)F)C(F)(F)F (stereo not given)	> 10 µM	> 10 µM	> 10 µM	> 10 µM	> 10 µM	> 10 µM	> 10 µM	> 10 µM	> 10 µM	> 10 µM	> 10 µM	> 10 µM	> 10 µM	> 10 µM	–	> 10 µM
Cc1ccc(SCC(CF)OCn2cc(F)c(=O)[nH]c2=O)cc1 (stereo not given)	–	> 100 µM	> 100 µM	> 100 µM	> 100 µM	> 100 µM	> 100 µM	> 100 µM	> 100 µM	> 100 µM	> 100 µM	> 100 µM	> 100 µM	> 100 µM	> 100 µM	> 100 µM
O=C(C[n+]1ccccc1)N=N/C(C(=O)Nc1c(Cl)c(O)c2ccccc2c1O)=C1/C(=O)Oc2cc(O)ccc2C1=O	10.4 µM	12.8 µM	7.09 µM	14.7 µM	–	7.3 µM	25.5 µM	21.7 µM	11.8 µM	2.26 µM	53.6 µM	> 100 µM	45.9 µM	12.1 µM	26.3 µM	8.84 µM
NC1=NN(c2ccccc2)C2(O)c3ccncc3C3=NN(c4ccccc4)C(=O)C132 (stereo not given)	> 100 µM	> 100 µM	> 100 µM	> 100 µM	> 100 µM	> 100 µM	> 100 µM	> 100 µM	> 100 µM	> 100 µM	> 100 µM	–	> 100 µM	> 100 µM	> 100 µM	> 100 µM
OC(C/C(=N\N1CCCCC1)c1cccs1)(C(F)(F)F)C(F)(F)F	> 10 µM	> 10 µM	> 10 µM	> 10 µM	> 10 µM	> 10 µM	–	> 10 µM	> 10 µM	> 10 µM	> 10 µM	> 10 µM	> 10 µM	> 10 µM	> 10 µM	> 10 µM
COc1ccc2cc(/C=N\NC(=O)Nc3cccc4ccccc34)ccc2c1	> 100 µM	> 100 µM	> 100 µM	> 100 µM	> 100 µM	> 100 µM	> 100 µM	> 100 µM	–	> 100 µM	29.6 µM	56.5 µM	29.9 µM	> 100 µM	> 100 µM	72.1 µM
